Values of other authors as cited in patent publication US20240041034A1, “ANTIMICROBIAL COMPOSITION COMPRISING A DIOCTYLDIMETHYLAMMONIUM COMPOUND” (The Procter & Gamble Company, priority 2022, published 2024).

Settings: in water, in the absence of surfactant

CCCCCCCC[N+](C)(C)CCCCCCCC.[Cl-] [DODMAC, dioctyldimethylammonium chloride]
Critical Micelle Concentration (CMC): ~5000 ppm
